Data from publication PMC7185459 (Antiviral Research, 2015).
Where two headings read alike, the source gives them in different places.

Experiments:
hRSV strain Long [1] = conditions: HEp-2 cells
hRSV strain Long [2] = experiment: microbe, parasite or virus in culture; conditions: human respiratory syncytial virus, HEp-2, 96 h
Dengue 2 virus = experiment: In vitro CPE assay, Dengue 2 virus; format: cell-based
physchem [3] = experiment: physchem
human influenza virus = experiment: In vitro CPE assay, human influenza virus; format: cell-based
SARS CoV = format: cell-based
Nipah virus = format: cell-based
RSV/A/Tracy = format: in vivo; conditions: cotton rat, intraperitoneal at -1, +6, +24 h, vs vehicle, day +4
hRSV strain Long [4] = experiment: microbe, parasite or virus in culture; conditions: human respiratory syncytial virus, A549
human metapneumovirus = experiment: In vitro CPE assay, human metapneumovirus; format: cell-based
physchem [5] = experiment: physchem; remark: listed apart in the source
[6] = test system: Venezuelan equine encephalitis virus; format: cell-based
[7] = test system: SRI 29365-resistant mutant hRSV (G protein A63V); format: cell-based, Human respiratory syncytial virus
hRSV strain Long [8] = conditions: A549 cells

Row | Structure (SMILES) | SI (CC50/EC50) (hRSV strain Long [1]) | EC50 (hRSV strain Long [2]) [nM] | reduction in CPE due to antiviral activity (Dengue 2 virus) | SI (CC50/EC50) (hRSV strain Long [1]; listed as 2) | solubility (physchem [3]) [µM] | reduction in CPE due to antiviral activity (human influenza virus) | reduction in CPE due to antiviral activity (SARS CoV) | reduction in CPE due to antiviral activity (Nipah virus) | body weight (RSV/A/Tracy) | lung lobe weight (RSV/A/Tracy) | EC50 (hRSV strain Long [4]) [nM] | reduction in CPE due to antiviral activity (human metapneumovirus) | half-life (physchem [5]) [h] | reduction in CPE due to antiviral activity [6] | resistance of mutant virus relative to wt virus EC50 [7] [fold] | SI (CC50/EC50) (hRSV strain Long [8])
1 | c1csc(-c2nn3c(Cn4cnc5ccccc54)nnc3s2)c1 [Compound 1, 1-[6-(2-thienyl)[1,2,4]triazolo[3,4-b][1,3,4]thiadiazol-3-yl]methyl-1H-benzimidazole] | 391 | 230 | – | – | – | – | – | – | – | – | – | – | – | – | – | –
2 | c1coc(-c2nn3c(Cn4cnc5ccccc54)nnc3s2)c1 [SRI 29365, 1-[6-(2-furyl)[1,2,4]triazolo[3,4-b][1,3,4]thiadiazol-3-yl]methyl-1H-benzimidazole] | – | – | No significant reduction in CPE | 83 | < 400 | No significant reduction in CPE | No significant reduction in CPE | No significant reduction in CPE | no significant difference | no significant difference | 1200 | No significant reduction in CPE | > 60 | No significant reduction in CPE | > 100 | > 83
